Test results reported in patent US12491170B2, “Stable treprostinil prodrugs” (United Therapeutics Corporation, priority 2020, dated 2025).
Read-outs that look alike come from different tables or passages of the source.

Assays:
[1] = Stability in liver microsomes, human; conditions: for AUC: human
[2] = Stability in cryopreserved hepatocytes, rat; conditions: for AUC: rat
[3] = Stability in human subcutaneous skin homogenate; conditions: for AUC: human
[4] = Stability in cryopreserved hepatocytes, human; conditions: for AUC: human
[5] = Stability in cryopreserved hepatocytes, dog; conditions: for AUC: dog
[6] = rat
[7] = dog
[8] = Stability in liver microsomes, rat
[9] = Stability in liver microsomes, dog

## CCCCCC(CCC1C(O)CC2Cc3c(cccc3OCC(=O)O)CC21)OC(=O)CCN (centres unmarked) [XXXVII]
[1]
  Trep Concentration 0 min: 0 µM
  Trep Concentration 10 min: 0.0147 µM
  Trep Concentration 20 min: 0 µM
  Trep Concentration 30 min: 0.0153 µM
  Trep Concentration 60 min: 0.00987 µM
  AUC: 0.60 µmol·min/L
[2]
  Trep Concentration (μM) 0 min: 0 µM
  Trep Concentration (μM) 15 min: 0.0136 µM
  Trep Concentration (μM) 30 min: 0.0199 µM
  Trep Concentration (μM) 60 min: 0.106 µM
  Trep Concentration (μM) 120 min: 0.0527 µM
  AUC: 7.00 µmol·min/L
[3]
  Trep Concentration 0 min: 0 µM
  Trep Concentration 30 min: 0 µM
  Trep Concentration 60 min: 0.0137 µM
  Trep Concentration 120 min: 0.0304 µM
  AUC: 1.53 µmol·min/L
[4]
  Trep Concentration (μM) 0 min: 0 µM
  Trep Concentration (μM) 15 min: 0.0481 µM
  Trep Concentration (μM) 30 min: 0.041 µM
  Trep Concentration (μM) 60 min: 0.0715 µM
  Trep Concentration (μM) 120 min: 0.115 µM
  AUC: 8.31 µmol·min/L
[5]
  Trep Concentration (μM) 0 min: 0 µM
  Trep Concentration (μM) 15 min: 0.0424 µM
  Trep Concentration (μM) 30 min: 0.0879 µM
  Trep Concentration (μM) 60 min: 0.147 µM
  Trep Concentration (μM) 120 min: 0.248 µM
  AUC: 16.67 µmol·min/L
[6]
  AUC: 0.00 µmol·min/L
[7]
  AUC: 1.72 µmol·min/L
[8]
  Trep Concentration 0 min: 0 µM
  Trep Concentration 10 min: 0 µM
  Trep Concentration 20 min: 0 µM
  Trep Concentration 30 min: 0 µM
  Trep Concentration 60 min: 0 µM
[9]
  Trep Concentration 0 min: 0.0163 µM
  Trep Concentration 20 min: 0.0295 µM
  Trep Concentration 30 min: 0.0273 µM
  Trep Concentration 60 min: 0.0415 µM

## CCCCCC(CCC1C(O)CC2Cc3c(cccc3OCC(=O)O)CC21)OC(=O)C1CCCN1 (centres unmarked) [XXXVI]
[1]
  Trep Concentration 0 min: 0.443 µM
  Trep Concentration 10 min: 0.502 µM
  Trep Concentration 20 min: 0.478 µM
  Trep Concentration 30 min: 0.379 µM
  Trep Concentration 60 min: 0.316 µM
  AUC: 24.34 µmol·min/L
[2]
  Trep Concentration (μM) 0 min: 0.00925 µM
  Trep Concentration (μM) 15 min: 0.494 µM
  Trep Concentration (μM) 30 min: 0.511 µM
  Trep Concentration (μM) 60 min: 0.505 µM
  Trep Concentration (μM) 120 min: 0.499 µM
  AUC: 56.67 µmol·min/L
[3]
  Trep Concentration 0 min: 0 µM
  Trep Concentration 30 min: 0.328 µM
  Trep Concentration 60 min: 0.559 µM
  Trep Concentration 120 min: 0.852 µM
  AUC: 60.56 µmol·min/L
[4]
  Trep Concentration (μM) 0 min: 0 µM
  Trep Concentration (μM) 15 min: 0.502 µM
  Trep Concentration (μM) 30 min: 0.512 µM
  Trep Concentration (μM) 60 min: 0.45 µM
  Trep Concentration (μM) 120 min: 0.482 µM
  AUC: 53.76 µmol·min/L
[5]
  Trep Concentration (μM) 0 min: 0 µM
  Trep Concentration (μM) 15 min: 0.229 µM
  Trep Concentration (μM) 30 min: 0.276 µM
  Trep Concentration (μM) 60 min: 0.264 µM
  Trep Concentration (μM) 120 min: 0.279 µM
  AUC: 29.90 µmol·min/L
[6]
  AUC: 20.24 µmol·min/L
[7]
  AUC: 19.90 µmol·min/L
[8]
  Trep Concentration 0 min: 0.154 µM
  Trep Concentration 10 min: 0.242 µM
  Trep Concentration 20 min: 0.326 µM
  Trep Concentration 30 min: 0.342 µM
  Trep Concentration 60 min: 0.463 µM
[9]
  Trep Concentration 0 min: 0.102 µM
  Trep Concentration 10 min: 0.199 µM
  Trep Concentration 20 min: 0.309 µM
  Trep Concentration 30 min: 0.353 µM
  Trep Concentration 60 min: 0.483 µM

## CCCCCC(CCC1C(O)CC2Cc3c(cccc3OCC(=O)O)CC21)OC(=O)C(N)CCCCN (centres unmarked) [XXXV]
[1]
  Trep Concentration 0 min: 0.0227 µM
  Trep Concentration 10 min: 0.0216 µM
  Trep Concentration 20 min: 0.0492 µM
  Trep Concentration 30 min: 0.0352 µM
  Trep Concentration 60 min: 0.0539 µM
  AUC: 2.33 µmol·min/L
[2]
  Trep Concentration (μM) 0 min: 0 µM
  Trep Concentration (μM) 15 min: 0.0876 µM
  Trep Concentration (μM) 30 min: 0.129 µM
  Trep Concentration (μM) 60 min: 0.169 µM
  Trep Concentration (μM) 120 min: 0.239 µM
  AUC: 18.99 µmol·min/L
[3]
  Trep Concentration 0 min: 0 µM
  Trep Concentration 30 min: 0.857 µM
  Trep Concentration 60 min: 0.82 µM
  Trep Concentration 120 min: 0.929 µM
  AUC: 90.48 µmol·min/L
[4]
  Trep Concentration (μM) 0 min: 0 µM
  Trep Concentration (μM) 15 min: 0.0481 µM
  Trep Concentration (μM) 30 min: 0.0749 µM
  Trep Concentration (μM) 60 min: 0.123 µM
  Trep Concentration (μM) 120 min: 0.194 µM
  AUC: 13.76 µmol·min/L
[5]
  Trep Concentration (μM) 0 min: 0 µM
  Trep Concentration (μM) 15 min: 0.0601 µM
  Trep Concentration (μM) 30 min: 0.0885 µM
  Trep Concentration (μM) 60 min: 0.127 µM
  Trep Concentration (μM) 120 min: 0.139 µM
  AUC: 12.78 µmol·min/L
[6]
  AUC: 2.92 µmol·min/L
[7]
  AUC: 2.81 µmol·min/L
[8]
  Trep Concentration 0 min: 0.0254 µM
  Trep Concentration 10 min: 0.0305 µM
  Trep Concentration 20 min: 0.0389 µM
  Trep Concentration 30 min: 0.0458 µM
  Trep Concentration 60 min: 0.079 µM
[9]
  Trep Concentration 0 min: 0.0159 µM
  Trep Concentration 10 min: 0.0246 µM
  Trep Concentration 20 min: 0.0405 µM
  Trep Concentration 30 min: 0.0449 µM
  Trep Concentration 60 min: 0.0788 µM
